Experimental data from US10239830B2, “Benzenesulfonamide upregulators of NPC1 for Neimann-Pick disease and other lysosomal storage disorders” (ICAHN SCHOOL OF MEDICINE AT MOUNT SINAI, priority 2015, dated 2019).

Experiments:
Rab9 promoter = experiment: qHTS of Rab9 Promoter-Luciferase Reporter Gene Assay (firefly, Huh7); assay type: cell-based, human; conditions: 24 hours
Procedure: qHTS of Rab9 Promoter-Luciferase Reporter Gene Assay. For the primary screen, a promoter assay was developed by engineering a vector using approximately 1.5 kb of the Rab9 promoter to drive the expression of the firefly luciferase reporter gene. Thus, Rab9 promoter activation results in luciferase expression. This vector was used to generate Huh7 cell lines stably expressing the Rab9-luciferase vector. […] Cells were plated for assays in OPTI-MEM I reduced-serum medium supplemented with 10% FBS at 1,500 cells/well in 5 μL in 1,536-well white opaque plates with 23 nL/well of test compound in DMSO solution. The assay plates were incubated at 37° C. for 24 hours, after which 3 μL/well BriteLite plus luciferase detection reagent mixture (Perkin Elmer) was added. Luminescence signal was measured in a ViewLux plate reader (Perkin Elmer) after a 10 minute incubation at room temperature.

[1] = tested on: NPC1 patient cell fibroblasts; experiment: Filipin Staining Assay to Detect Free Cholesterol Accumulation in NPC Cells; assay type: cell-based, human; conditions: filipin fluorescence relative to untreated cells
Procedure: Filipin Staining Assay to Detect Free Cholesterol Accumulation in NPC Cells. Compounds were evaluated for their effect on the NPC1 cellular phenotype by staining treated NPC1 patient cell fibroblasts with filipin, which recognizes free unesterified cholesterol. Compounds that upregulate the NPC1 promoter were expected to reduce the filipin staining in treated NPC1 fibroblasts compared to untreated NPC1 fibroblasts, indicating clearance of unesterified cholesterol. Conversely, inhibitors of the NPC1 promoter were expected to increase filipin staining in wild-type fibroblasts, thus indicating the emergence of an NPC-like phenotype. Briefly, cells were grown in lipoprotein-deficient medium for 3-4 days, and then the medium was replaced and supplemented with test compound plus 50 μg/mL low-density lipoprotein (LDL). After 24-48 hours, cells were stained with filipin and scored under the 40× magnification filter using the integrated morphometry function in the Metavue program (Molecular Devices). Test compounds that decreased the intensity of filipin fluorescence to less than 50% of untreated cells are considered of particular interest.

Wild type (Wt) cells = experiment: VTB-GL-3 assay, wild type cells; assay type: cell-based, human; conditions: Wt cells treated for 3 days
NPC3 cells = experiment: Lactosyl Ceramide (BODIPY-LacCer) staining to monitor sphingolipid transport; assay type: cell-based, human; conditions: for correction of lipid transport block (accumulation of Bodipy LacCer probe to the Golgi): compared to untreated NPC3 cells
Procedure: Lactosyl Ceramide staining to monitor sphingolipid transport in NPC cells. The effect of each compound on the sphingolipid transport defect seen in NPC1 fibroblasts was assessed in cells treated with compound for 48-72 hours using the fluorescent probe BODIPY-lactosylceramide (LacCer). […] This mislocalization can be corrected and Golgi localization restored by expression of Wt NPC1 protein or Rab9, thus providing a dynamic view of the endocytic transport pathway. Cells were incubated with 5 μM BODIPY-LacCer/BSA for 45 min at 37° C. in culture medium containing 1% FBS, washed, and further incubated for 1 h at 37° C. in medium containing 1% FBS. Fluorescent lipid present at the plasma membrane was removed by back-exchange with 5% fatty acid-free BSA. Cells were fixed with 3% paraformaldehyde for 20 min at RT and then visualized on a Nikon Eclipse microscope fitted with a charge-coupled-device camera. Images were acquired with MetaVue software and then deconvoluted using AutoDeblur software.
Unlike the VTB assay above that detects the static levels of lipid storage, the Bodipy LacCer probe allows for detection of the recovery/correction of lipid transport from the plasma membrane to the Golgi apparatus as described above. This dynamic assay can be used to determine the level of correction various compounds have on the NPC transport block.

NPC1 promoter [2] = experiment: qHTS of NPC1 Promoter-Luciferase Reporter Gene Assay (firefly, Huh7); assay type: cell-based, human; conditions: 24 hours
Procedure: qHTS of NPC1 Promoter-Luciferase Reporter Gene Assay. For the second primary screen, a promoter assay was developed by engineering a vector using approximately 1.5 kb of the NPC1 promoter to drive the expression of the firefly luciferase reporter gene. Thus, NPC1 promoter activation results in luciferase expression. This vector was used to generate Huh7 cell lines stably expressing the NPC1-luciferase vector. […] Cells were plated for assays in OPTI-MEM I reduced-serum medium supplemented with 10% FBS at 1,500 cells/well in 5 μL in 1,536-well white opaque plates with 23 nL/well of test compound in DMSO solution. The assay plates were incubated at 37° C. for 24 hours, after which 3 μL/well BriteLite plus luciferase detection reagent mixture (Perkin Elmer) was added. Luminescence signal was measured in a ViewLux plate reader (Perkin Elmer) after a 10 minute incubation at room temperature.

NPC1 promoter [3] = experiment: Confirmation Assay of NPC1 Promoter Activators: Renilla Luciferase (Huh7); assay type: cell-based, human; conditions: 24 hours
Procedure: Confirmation Assay of NPC1 Promoter Activators: Renilla Luciferase. The confirmation assay was carried out using an assay in which the NPC1 promoter drives the expression of a different luciferase protein from the one used in the primary screen. The NPC1 promoter was cloned in front of the renilla luciferase reporter gene. NPC1 promoter activation results in renilla luciferase expression. This vector was used to generate Huh7 cell lines stably expressing the NPC1-renilla luciferase vector. These cells were propagated and maintained in medium containing RPMI-1640 supplemented with 10% FBS, 2 mM L-glutamine, and 50 μg/mL penicillin/streptomycin. Cells were plated for assays in OPTI-MEM I reduced-serum medium supplemented with 10% FBS at 1,500 cells/well in 5 μL in 1,536-well white opaque plates and then 23 nL/well of compound in DMSO solution were added through pin transfer. The assay plates were incubated at 37° C. for 24 hours. The Amplite luciferase reporter gene assay kit was purchased from ABD Bioquest and prepared/stored according to manufacturer's recommendations. Luminescence signal was measured in a ViewLux plate reader (Perkin Elmer) after a 10 minute incubation at room temperature.

Renilla Enzyme = target: T1, Renilla Enzyme (Renilla reniformis, UniProt P27652); experiment: Biochemical Renilla Luciferase Counter assay
T1 sequence (P27652 1-311): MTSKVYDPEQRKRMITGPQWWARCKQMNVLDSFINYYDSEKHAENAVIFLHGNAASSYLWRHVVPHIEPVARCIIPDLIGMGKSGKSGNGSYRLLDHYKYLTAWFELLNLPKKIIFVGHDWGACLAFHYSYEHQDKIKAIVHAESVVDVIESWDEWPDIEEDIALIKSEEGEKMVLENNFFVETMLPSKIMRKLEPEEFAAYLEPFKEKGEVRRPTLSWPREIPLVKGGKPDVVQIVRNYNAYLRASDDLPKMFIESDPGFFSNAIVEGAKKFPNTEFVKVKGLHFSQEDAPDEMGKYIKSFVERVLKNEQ
Procedure: Biochemical Renilla Luciferase Counter assay. An orthogonal assay was run to exclude any compounds that promoted renilla luciferase signal by stabilizing the renilla protein. Briefly, 3 μL of 0.01 mM D-Luciferin and 0.01 mM ATP was dispensed into a 1536 well white, solid bottom plate. Through pinning, 23 nL of compound was added; PTC124 (3-[5-(2-Fluorophenyl)-1,2,4-oxadiazol-3-yl]benzoic acid) served as the control. After a 10 min incubation at room temperature, 1 μL of Luciferase was added, after which the plate was immediately read on the ViewLux for a luminescent read-out.

Row | SMILES | EC50 (Rab9 promoter) [µM] | Rab9 Eff. (Rab9 promoter) [%] | % storage at 0.1 μM [1] [%] | % storage at 1 μM [1] [%] | effect on storage of lipid material (VTB staining) in Wt cells (Wild type (Wt) cells) | percent Golgi location (NPC3 cells; 1 μM) | correction of lipid transport block (accumulation of Bodipy LacCer probe to the Golgi) (NPC3 cells) | EC50 (NPC1 promoter [2]) [µM] | NPC1 Eff. (NPC1 promoter [2]) | percent Golgi location (NPC3 cells; 10 or 100 nM) | EC50 (NPC1 promoter [3]) [µM] | NPC1-renilla Eff. (NPC1 promoter [3]) [%] | Renilla Enzyme IC50 (Renilla Enzyme)
1 | CC(=O)c1c(C)[nH]c(C(=O)Nc2cccc(S(=O)(=O)N(C)C)c2)c1C [Example 1] | 6.1 | 148 | 40 | 22 | no effect on Wt cells | reduces percent Golgi location by a statistically significant amount | correction of their block | 6.6 to 7.7 | 68-83% |  |  |  | 
2 | COc1ccc(NC(=O)c2[nH]c(C)c(C(C)=O)c2C)cc1S(=O)(=O)Nc1ccc(Br)cc1 [Example 36] |  |  | 50 | 25 | no effect on Wt cells |  | correction of their block | 0.7 | 150% | reduces percent Golgi location by a statistically significant amount |  |  | 
3 | COc1ccc(NC(=O)C23CC4CC(CC(C4)C2)C3)cc1S(=O)(=O)Nc1ccc(Br)cc1 [Example 47] |  |  |  | 33 |  |  |  |  |  |  | 2.7 | 80 | Inactive
